Experimental findings from US11999727B2 (Tango Therapeutics, Inc., priority 2020, dated 2024) are described below.

Assay [1] has as its target T1, PRMT5 (Homo sapiens, UniProt O14744).
T1 construct: purchased Viva (custom protein)
The assay can be described thus: PRMT5 biochemical IC50 assay with SAM as cofactor. As to conditions: PRMT5, SAM as cofactor; read-out: SAM IC50.

The target of assay [2] is T1, PRMT5. The assay can be described thus: PRMT5 biochemical IC50 assay with no cofactor. As to conditions: PRMT5, no cofactor. The text has this: Table 1 indicates IC50 values (μM) against PRMT5 for exemplary compounds in the presence of SAM as cofactor, with no cofactor, and with MTA as cofactor, respectively (columns 4-6). […] Ki values can be calculated from the IC50 values as described in the Examples section. As detailed in the Examples section, for the assay performed in the presence of SAM, IC50=Ki×1.5 (Ki=IC50/1.5).

The target in assay [3] is T1, PRMT5. Briefly: PRMT5 biochemical IC50 assay with MTA as cofactor. The settings on record: PRMT5, MTA as cofactor; read-out: MTA IC50.
For assay [4], the system named is HAP1 MTAP-intact cell line. The assay can be described thus: SDMA in-cell western assay, HAP1 MTAP-intact. In kind it is cell-based. As to conditions: Homo sapiens, HAP1, SDMA in-cell western, HAP1 MTAP-intact; read-out: MTAP HAP1 intact IC50. The procedure, abridged:
(§1)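 Compounds were tested in HAP1 cells differing only in MTAP status (endogenous expression versus null). Cellular SDMA levels were then measured by in-cell western, giving an IC50 in each background.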

The subject of assay [5] is HAP1 MTAP-deleted cell line. The assay can be described thus: SDMA in-cell western assay, HAP1 MTAP-deleted. In kind it is cell-based. As to conditions: for IC50: Homo sapiens, HAP1, SDMA in-cell western, HAP1 MTAP-deleted; for MTAP intact/deleted ratio: SDMA in-cell western. Summed up:
as §1

Assay [6] has as its system HAP1 MTAP-deleted cell line. Briefly: Viability assay, MTAP-deleted cell line. In kind it is cell-based. The settings on record: Homo sapiens, read-out: HAP1 MTAP deleted viability. The text has this:
Table 1 additionally indicates IC50 values in a viability assay for the MTAP-deleted cell line (column 10), indicating the effect of treatment with compound on cell survival.

The mark [7] stands for this setting: read-out: HAP1 MTAP deleted IC50.
The mark [8] stands for this setting: IC50 ratio HAP1 MTAP-intact / HAP1 MTAP-deleted.
[9] abbreviates: HAP1, viability assay, MTAP-deleted cell line.
[10] abbreviates: read-out: No Cofactor/ rel IC50.
[11] abbreviates: read-out: HAP 1 MTAP deleted IC50.
Where [12] appears, read: HAP1, viability, HAP1 MTAP-deleted cell line.
Setting [13] is: IC50 ratio HAP1 MTAP-intact vs HAP1 MTAP-deleted.

Bounds are passed on as bounds.

T1 sequence (O14744 whole entry): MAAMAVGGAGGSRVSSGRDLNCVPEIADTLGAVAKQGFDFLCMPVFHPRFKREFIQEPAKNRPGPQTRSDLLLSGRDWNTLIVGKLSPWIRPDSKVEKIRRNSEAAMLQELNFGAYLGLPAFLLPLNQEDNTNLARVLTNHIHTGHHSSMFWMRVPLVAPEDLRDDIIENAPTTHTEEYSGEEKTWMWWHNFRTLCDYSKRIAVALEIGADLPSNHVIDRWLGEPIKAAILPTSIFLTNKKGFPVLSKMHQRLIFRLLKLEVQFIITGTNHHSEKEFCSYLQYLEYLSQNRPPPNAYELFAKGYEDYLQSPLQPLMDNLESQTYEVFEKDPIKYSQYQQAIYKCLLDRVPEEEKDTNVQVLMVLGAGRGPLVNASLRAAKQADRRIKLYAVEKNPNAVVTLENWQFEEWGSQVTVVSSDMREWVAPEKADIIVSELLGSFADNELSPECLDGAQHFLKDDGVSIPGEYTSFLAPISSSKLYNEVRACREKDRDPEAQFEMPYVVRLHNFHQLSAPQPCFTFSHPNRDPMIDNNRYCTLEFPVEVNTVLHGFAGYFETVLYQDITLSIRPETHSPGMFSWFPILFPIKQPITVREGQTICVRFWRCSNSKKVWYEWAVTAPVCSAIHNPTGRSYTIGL
T1 sequence (Q9BQA1 whole entry partner): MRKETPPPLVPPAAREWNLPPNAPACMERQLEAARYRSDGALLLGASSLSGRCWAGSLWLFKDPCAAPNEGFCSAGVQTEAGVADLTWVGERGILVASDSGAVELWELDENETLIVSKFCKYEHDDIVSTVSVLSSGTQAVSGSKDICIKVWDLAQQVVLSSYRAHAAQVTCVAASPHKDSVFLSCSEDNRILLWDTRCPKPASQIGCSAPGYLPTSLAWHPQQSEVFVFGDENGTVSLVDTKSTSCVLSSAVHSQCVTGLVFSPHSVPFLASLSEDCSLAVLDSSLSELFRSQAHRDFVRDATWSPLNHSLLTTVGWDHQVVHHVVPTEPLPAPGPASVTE

As to `C[C@@H]1C[C@H](c2ccccc2)N(C(=O)C(=O)Nc2cncc(C(N)=O)c2)C[C@@H]1C` (racemic) [Compound 229, 5-[[2-[(2S,4S,5S)-4,5-dimethyl-2-phenyl-1-piperidyl]-2-oxo-acetyl]amino]pyridine-3-carboxamide], the IC50 at PRMT5 [1] is more than 500 nM; on PRMT5 [2] (read-out: No Cofactor/rel IC50) it was more than 500 nM; on PRMT5 [3], 50 to 500 nM; in assay [4], more than 1000 nM; in assay [5] (setting [7]), more than 1000 nM; in assay [6] (setting [9]) it was more than 10000 nM. In addition, the MTAP intact/deleted ratio entry in assay [5] (setting [8]) is on record as “B (an IC50 ratio greater than or equal to 3 fold but lower than 10 fold)”.

On to `COc1ncc(NC(=O)C(=O)N2C[C@H](C)CC[C@H]2C2CCCC2)cc1C(N)=O` (single isomer, unassigned) [Compound 306], for which the IC50 on PRMT5 [1] is 50 to 500 nM; on PRMT5 [2] (read-out: No Cofactor/rel IC50) it was 50 to 500 nM; on PRMT5 [3], less than 50 nM; in assay [4] it was more than 1000 nM; in assay [5] (setting [7]), less than 100 nM; in assay [6] (setting [9]), 1000 to 10000 nM. In addition, the MTAP intact/deleted ratio result in assay [5] (setting [8]) is given as “A (an IC50 ratio greater than or equal to 10 fold)”.

Regarding `Cc1ccc([C@@H]2CC[C@@H](C)CN2C(=O)C(=O)Nc2cncc(C(N)=O)c2)cc1C` (racemic) [Compound 180, rac-5-{2-[(2R,5S)-2-(3,4-Dimethylphenyl)-5-methylpiperidin-1-yl]-2-oxoacetamido}pyridine-3-carboxamide], the IC50 on PRMT5 [1] is 50 to 500 nM; at PRMT5 [2] (read-out: No Cofactor/rel IC50) it was 50 to 500 nM; on PRMT5 [3] it was less than 50 nM; in assay [4] it was more than 1000 nM; in assay [5] (setting [7]), 100 to 1000 nM; in assay [6] (setting [9]) it was 1000 to 10000 nM. Further, the MTAP intact/deleted ratio entry in assay [5] (setting [8]) is on record as “A (an IC50 ratio greater than or equal to 10 fold)”.

With `CCc1cc(NC(=O)C(=O)N2C[C@@H](C)CC[C@@H]2c2ccc3sc(-c4ccnn4C)nc3c2)cnc1N` [Compound 1389, N-(6-amino-5-ethylpyridin-3-yl)-2-((2R,5S)-5-methyl-2-(2-(1-methyl-1H-pyrazol-5-yl)benzo[d]thiazol-5-yl)piperidin-1-yl)-2-oxoacetamide], the IC50 on PRMT5 [1] is 50 to 500 nM; on PRMT5 [2] (setting [10]), less than 50 nM; on PRMT5 [3], less than 50 nM; in assay [4], 100 to 1000 nM; in assay [5] (setting [11]), less than 100 nM; in assay [6] (setting [12]) it was less than 1000 nM. Moreover, in assay [5] (setting [8]), the “MTAP intact/deleted ratio” value is on record as “A (an IC50 ratio greater than or equal to 10 fold)”.

With `CCc1cc(NC(=O)C(=O)N2C[C@@H](C)CC[C@@H]2c2cccc(OCC3CCN(C)CC3)c2)cnc1N` [Compound 1348, N-(6-amino-5-ethylpyridin-3-yl)-2-((2R,5S)-5-methyl-2-(3-((1-methylpiperidin-4-yl)methoxy)phenyl)piperidin-1-yl)-2-oxoacetamide], the IC50 was less than 50 nM at PRMT5 [1]; less than 50 nM on PRMT5 [2] (setting [10]); less than 50 nM at PRMT5 [3]; less than 100 nM in assay [4]; less than 100 nM in assay [5] (setting [11]); less than 1000 nM in assay [6] (setting [12]). In addition, in assay [5] (setting [8]), the “MTAP intact/deleted ratio” value was “A (an IC50 ratio greater than or equal to 10 fold)”.

In the case of `CCc1cc(NC(=O)C(=O)N2C[C@@H](C)CC[C@@H]2c2ccc(N3CC[C@H]4CCN(C)C[C@H]4C3)cc2)cnc1N` (single isomer, unassigned) [Compound 1204], the IC50 on PRMT5 [1] is 50 to 500 nM; at PRMT5 [2] (read-out: No Cofactor/rel IC50) it was less than 50 nM; at PRMT5 [3] it was less than 50 nM; in assay [4] it was 100 to 1000 nM; in assay [5] (setting [7]), less than 100 nM; in assay [6] (setting [9]) it was less than 1000 nM. The MTAP intact/deleted ratio entry in assay [5] (setting [13]) is “A (an IC50 ratio greater than or equal to 10 fold)”.

Consider `Cc1cc(NC(=O)C(=O)N2CCCC[C@H]2C(C)C)cnc1N` (single isomer, unassigned) [Compound 192], for which the IC50 is 50 to 500 nM on PRMT5 [1]; 50 to 500 nM on PRMT5 [2] (read-out: No Cofactor/rel IC50); less than 50 nM on PRMT5 [3]; more than 1000 nM in assay [4]; 100 to 1000 nM in assay [5] (setting [7]); more than 10000 nM in assay [6] (setting [9]). Besides, in assay [5] (setting [8]), the MTAP intact/deleted ratio result is reported as “A (an IC50 ratio greater than or equal to 10 fold)”.

Consider `COc1ccc([C@@H]2CC[C@@H](C)CN2C(=O)C(=O)Nc2cncc(C(N)=O)c2)cn1` (racemic) [Compound 128, rac-5-{2-[(2R,5S)-2-(6-Methoxypyridin-3-yl)-5-methylpiperidin-1-yl]-2-oxoacetamido}pyridine-3-carboxamide], for which the IC50 on PRMT5 [1] is 50 to 500 nM; on PRMT5 [2] (setting [10]), 50 to 500 nM; on PRMT5 [3], less than 50 nM; in assay [4], more than 1000 nM; in assay [5] (setting [11]), 100 to 1000 nM; in assay [6] (setting [9]), more than 10000 nM. For the same compound, the “MTAP intact/deleted ratio” value in assay [5] (setting [8]) was “A (an IC50 ratio greater than or equal to 10 fold)”.

`CNC(=O)N1CCCC([C@@H]2CC[C@@H](C)CN2C(=O)C(=O)Nc2cnc(N)c(C)c2)C1` (mixture of isomers) [Compound 814, 1-(2-((6-amino-5-methylpyridin-3-yl)amino)-2-oxoacetyl)-N,5-dimethyl-[2,3′-bipiperidine]-1′-carboxamide]: the IC50 is 50 to 500 nM on PRMT5 [1]; 50 to 500 nM at PRMT5 [2] (read-out: No Cofactor/rel IC50); 50 to 500 nM on PRMT5 [3]; more than 1000 nM in assay [4]; 100 to 1000 nM in assay [5] (setting [7]); more than 10000 nM in assay [6] (HAP1, viability assay, HAP1 MTAP-deleted). For the same compound, the MTAP intact/deleted ratio entry in assay [5] (setting [8]) is “A (an IC50 ratio greater than or equal to 10 fold)”.

Regarding `CNc1cccc([C@@H]2CC[C@@H](C)CN2C(=O)C(=O)Nc2cncc(C(N)=O)c2)c1` (single isomer, unassigned) [Compound 348], the IC50 on PRMT5 [1] is 50 to 500 nM; at PRMT5 [2] (read-out: No Cofactor/rel IC50) it was 50 to 500 nM; on PRMT5 [3], less than 50 nM; in assay [4], more than 1000 nM; in assay [5] (setting [7]), less than 100 nM; in assay [6] (setting [9]), 1000 to 10000 nM. Besides, in assay [5] (setting [8]), the MTAP intact/deleted ratio entry is listed as “A (an IC50 ratio greater than or equal to 10 fold)”.

As for `COc1ncc(NC(=O)C(=O)N2C[C@@H](C)CC[C@@H]2c2ccc3sc(C4(CN(C)C)COC4)nc3c2)cc1C(N)=O` [Compound 1155, 5-(2-((2R,5S)-2-(2-(3-((dimethylamino)methyl)oxetan-3-yl)benzo[d]thiazol-5-yl)-5-methylpiperidin-1-yl)-2-oxoacetamido)-2-methoxynicotinamide], the IC50 on PRMT5 [1] is less than 50 nM; at PRMT5 [2] (read-out: No Cofactor/rel IC50), less than 50 nM; on PRMT5 [3], less than 50 nM; in assay [4], 100 to 1000 nM; in assay [5] (setting [7]) it was less than 100 nM; in assay [6] (setting [9]) it was less than 1000 nM. Besides, the MTAP intact/deleted ratio result in assay [5] (setting [13]) was “A (an IC50 ratio greater than or equal to 10 fold)”.

Consider `Cc1cc([C@@H]2CC[C@@H](C)CN2C(=O)C(=O)Nc2cncc(C(N)=O)c2)ccn1` (single isomer, unassigned) [Compound 519], for which the IC50 on PRMT5 [1] was more than 500 nM; at PRMT5 [2] (read-out: No Cofactor/rel IC50), more than 500 nM; on PRMT5 [3] it was more than 500 nM; in assay [4], more than 1000 nM; in assay [5] (setting [7]), more than 1000 nM; in assay [6] (setting [9]), more than 10000 nM. In assay [5] (setting [8]), the MTAP intact/deleted ratio result is listed as “C (an IC50 ratio of less than 3 fold)”.
